Results: paper PMC9574886 (Bioorganic & medicinal chemistry, 2022)
Counter-ions that a name gives are not always drawn.

Columns and labels:
human nNOS = human nNOS (Homo sapiens, UniProt P29475); experiment: NO-hemoglobin; format: biochemical; details: for drop in potency with hnNOS relative to 12: compared with 12
purified rat nNOS = purified rat nNOS (Rattus norvegicus, UniProt P29476); experiment: NO-hemoglobin; format: biochemical; details: for drop in potency with rnNOS relative to 12: compared with 12
[1] = PAMPA-BBB parallel artificial membrane permeability assay; format: in vitro ADME; details: 17 h, 200 μM, triplicate, in-house conditions
human eNOS = human eNOS (Homo sapiens, UniProt P29474); experiment: NO-hemoglobin; format: biochemical; details: hn/he compared to lead 9

Row | SMILES | drop in potency with hnNOS relative to 12 (human nNOS) [fold] | Determined Pe [1] | other results
1 | Cc1cc(N)nc(C#CCN2CCN(C)CC2)c1 [Compound 13, 4-methyl-6-(3-(4-methylpiperazin-1-yl)prop-1-yn-1-yl)pyridin-2-amine dihydrochloride] | ~73 |  | 
2 | Cc1cc(N)nc(C#CCN2CCC(F)(F)CC2)c1 [Compound 19, 6-(3-(4,4-difluoropiperidin-1-yl)prop-1-yn-1-yl)-4-methylpyridin-2-amine] | ~49 | 21.1 10^−6 cm s^−1 | drop in potency with rnNOS relative to 12 (purified rat nNOS): about 61 fold
3 | Cc1cc(N)nc(CCCN2CCC(F)(F)CC2)c1 [Compound 20, 6-(3-(4,4-difluoropiperidin-1-yl)propyl)-4-methylpyridin-2-amine dihydrochloride] |  | 17.3 10^−6 cm s^−1 | 
4 | Cc1cc(N)nc(C#CCN2CC(F)(F)C2)c1 [Compound 17, 6-(3-(3,3-difluoroazetidin-1-yl)prop-1-yn-1-yl)-4-methylpyridin-2-amine dihydrochloride] | ~17 |  | better affinity than 19 with rnNOS (purified rat nNOS; compared with 19): 3 fold; better affinity than 19 with hnNOS (human nNOS; compared with 19): 3 fold
5 | Cc1cc(N)nc(CCCN(C)C)c1 [Compound 12, 6-(3-(dimethylamino)propyl)-4-methylpyridin-2-amine dihydrochloride] |  | 2.0 10^−6 cm s^−1 | drop in heNOS selectivity as compared to lead 9 (human eNOS): 8 fold
6 | CNCC#Cc1cc(C)cc(N)n1 [Compound 10, 4-methyl-6-(3-(methylamino)prop-1-yn-1-yl)pyridin-2-amine dihydrochloride] |  |  | drop in potency with rnNOS relative to 12 (purified rat nNOS): 3 fold
7 | Cc1cc(N)nc(C#CCCN(C)C)c1 [Compound 15, 6-(4-(dimethylamino)but-1-yn-1-yl)-4-methylpyridin-2-amine dihydrochloride] | 11 |  | 
8 | Cc1cc(N)nc(CCCCN(C)C)c1 [Compound 16, 6-(4-(dimethylamino)butyl)-4-methylpyridin-2-amine dihydrochloride] | ~2 |  | 
